US8119624B2, “Fused phenyl amido heterocyclic compounds” (Pfizer Inc., priority 2006, dated 2012)
pEC50: −log10 of the molar value.

Target: T1, Full-length glucokinase (beta cell isoform) (Homo sapiens, UniProt P35557)
T1 construct: Full-length glucokinase (beta cell isoform) was His-tagged at N-terminus; His tag (N); made in house
T1 sequence (P35557 1-465): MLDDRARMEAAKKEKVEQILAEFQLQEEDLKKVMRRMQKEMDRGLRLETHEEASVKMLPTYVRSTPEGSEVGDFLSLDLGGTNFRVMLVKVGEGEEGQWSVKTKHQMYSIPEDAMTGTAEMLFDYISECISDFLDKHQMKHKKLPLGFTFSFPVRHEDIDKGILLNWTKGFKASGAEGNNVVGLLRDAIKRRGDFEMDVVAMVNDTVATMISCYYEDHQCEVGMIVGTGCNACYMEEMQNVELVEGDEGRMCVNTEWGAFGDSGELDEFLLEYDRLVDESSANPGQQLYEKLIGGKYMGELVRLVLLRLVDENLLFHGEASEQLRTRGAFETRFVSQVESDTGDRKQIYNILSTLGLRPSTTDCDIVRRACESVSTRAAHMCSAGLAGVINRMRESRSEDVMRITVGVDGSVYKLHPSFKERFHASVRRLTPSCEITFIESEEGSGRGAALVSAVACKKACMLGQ
Assay: Glucokinase biochemical assay (PK/LDH-coupled, NADH depletion at 340 nm): % activation, EC50, % max activation
Settings: 5 mM glucose; for activation at 10 µM: 10 uM compound, % Activation=(Va/Vo−1)×100, read-out: % Activation at 10 uM; for pEC50: GK activation, read-out: EC50; for Emax: fitted maximum activation, read-out: % Max Activation
Procedure, shortened: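 Activation expressed as (Va/Vo−1)×100, where initial rates with and without compound come from NADH depletion at 340 nm over 200–900 s. Enzyme is His-tagged human beta-cell GK, full length, run at room temperature in HEPES buffer with 1 mM ATP and 5 mM glucose. DMSO 1%.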

Row | activation at 10 µM [%] | pEC50 | Emax [%] | Compound
1 | 161 | 6.29 | 165 | CC1(C)Cc2c(Oc3ccc(S(C)(=O)=O)cc3)cc(C(=O)Nc3cnccn3)cc2O1 [Example 17, 4-(4-Methanesulfonyl-phenoxy)-2,2-dimethyl-2,3-dihydrobenzofuran-6-carboxy-lic acid pyrazin-2-ylamide]
2 | 46.9 | 6.44 | 50 | COc1ccnc(NC(=O)c2cc(Oc3ccc(S(=O)(=O)N4CCC4)cc3)c3cc(C)oc3c2)c1 [Example 295, 4-(4-(Azetidin-1-ylsulfonyl)phenoxy)-N-(4-methoxypyridin-2-yl)-2-methyl-benzofuran-6-carboxamide]
3 | 288 | 6.77 | 280 | CN(C)S(=O)(=O)c1ccc(Oc2cc(C(=O)Nc3cnn(C)n3)cc3c2CC(C)(C)O3)cc1F [Example 132, 4-(4-Dimethylsulfamoyl-3-fluoro-phenoxy)-2,2-dimethyl-2,3-dihydro-benzofuran-6-carboxylic acid (2-methyl-2H-[1,2,3]triazol-4-yl)-amide]
4 | 131 | 7.18 | 130 | CN(CC#N)C(=O)c1ccc(Oc2cc(C(=O)Nc3ccn(C)n3)cc3c2CC(C)(C)O3)cc1F [Example 67, 4-[4-(Cyanomethyl-methyl-carbamoyl)-3-fluoro-phenoxy]-2,2-dimethyl-2,3-dihydro-benzofuran-6-carboxylic acid(1-methyl-1H-pyrazol-3-yl)-amide]
5 | 52.8 | 5.07 | 106 | Cc1ccc(NC(=O)c2cc(Oc3ccc(S(C)(=O)=O)cc3)c3occc3c2)nc1 [Example 333, N-(5-methylpyridin-2-yl)-7-[4-(methylsulfonyl)phenoxy]-1-benzofuran-5-carboxamide]
6 | 107 | 5.55 | 137 | COCC1Cc2c(Oc3ccc(S(C)(=O)=O)cc3)cc(C(=O)Nc3ccn(C)n3)cc2O1 (stereo not shown) [Example 201, 4-(4-Methanesulfonyl-phenoxy)-2-methoxymethyl-2,3-dihydro-benzofuran-6-carboxylic acid (1-methyl-1H-pyrazol-3-yl)-amide]
7 | 154 | 5.80 | 165 | Cn1ccc(NC(=O)c2cc(OCc3nc(-c4ccccn4)no3)c3c(c2)OC(C)(C)C3)n1 [Example 98, 2,2-Dimethyl-4-(3-pyridin-2-yl-[1,2,4]oxadiazol-5-ylmethoxy)-2,3-dihydro-benzofuran-6-carboxylic acid (1-methyl-1H-pyrazol-3-yl)-amide]
8 | 73.6 | 5.07 | 136 | Cc1ccnc(C(C)Oc2cc(C(=O)Nc3ccn(C)n3)cc3c2CC(C)(C)O3)c1 (stereo not shown) [Example 87, 2,2-Dimethyl-4-[1-(4-methyl-pyridin-2-yl)-ethoxy]-2,3-dihydro-benzofuran-6-carboxylic acid (1-methyl-1H-pyrazol-3-yl)-amide]
9 | 32.1 |  |  | Cc1cc2c(Oc3ccc(S(C)(=O)=O)cc3)cc(C(=O)Nc3ccc(C(F)(F)F)cn3)cc2o1 [Example 253, 2-Methyl-4-(4-(methylsulfonyl)phenoxy)-N-(5-(trifluoromethyl)-pyridin-2-yl)benzofuran-6-carboxamide]
10 | 254 | 6.41 | 232 | Cn1ccc(NC(=O)c2cc(Oc3ccc(C(=O)NC4CC4)c(F)c3)c3c(c2)OC(C)(C)C3)n1 [Example 73, 4-(4-Cyclopropylcarbamoyl-3-fluoro-phenoxy)-2,2-dimethyl-2,3-dihydro-benzofuran-6-carboxylic acid(1-methyl-1H-pyrazol-3-yl)-amide]
11 | 112 | 6.60 | 102 | CN(C)C(=O)c1ncc(Oc2cc(C(=O)Nc3ccn(C)n3)cc3c2CC(C)(C)O3)cn1 [Example 164, 5-[2,2-Dimethyl-6-(1-methyl-1H-pyrazol-3-ylcarbamoyl)-2,3-dihydro-benzofuran-4-yloxy]-pyrimidine-2-carboxylic acid dimethylamide]
